We go through 1 compound from patent US9226907B2 (priority 2008, dated 2016).

For data set [1] the following is noted: higher drug concentrations associated with overdosage (280 μg/mL); cited from earlier work.
For data set [2] the following is noted: in vivo.
A short description of another data set: clinical. The conditions noted are these: in vivo. The text has this: Hydrocodone is structurally similar to other opioid analgesics (hydromorphone and oxycodone).

Usually Vd stands for a proportionality between amount in the body and measured concentration, not a real space. A low value points to little distribution into tissue. `CC(=O)Nc1ccc(O)cc1` [acetaminophen, 4′-hydroxyacetanilide]: the “Bound to plasma proteins” value in data set [1] is given as 15-21%. Besides, the “Variability in exposures (Cmax and AUC)” value in data set [2] (human) is on record as “not affected by ethanol coadministration”. Besides, the “AUC with different ethanol concentrations versus 0% ethanol” value in data set [2] is listed as “equivalent to that of Vicodin CR alone”. In addition, in the data set “clinical” (human), the “Effect of food on Cmax or AUC” value is given as “no effect on Cmax or AUC”, the “Time by which steady state was achieved” value is no more than 24 h and the Vd lay in the range of 78 to 245 L. Moreover, the “Cmax and AUC versus dose” value in “clinical” was “proportional to dose”.
